What was measured:
[1] = biological target: T1, Gamma-aminobutyric acid receptor subunit alpha-5 (Homo sapiens, UniProt P31644); test: Displacement of flumazenil from alpha5 GABAA receptor (unknown origin)
T1 sequence (P31644 whole entry): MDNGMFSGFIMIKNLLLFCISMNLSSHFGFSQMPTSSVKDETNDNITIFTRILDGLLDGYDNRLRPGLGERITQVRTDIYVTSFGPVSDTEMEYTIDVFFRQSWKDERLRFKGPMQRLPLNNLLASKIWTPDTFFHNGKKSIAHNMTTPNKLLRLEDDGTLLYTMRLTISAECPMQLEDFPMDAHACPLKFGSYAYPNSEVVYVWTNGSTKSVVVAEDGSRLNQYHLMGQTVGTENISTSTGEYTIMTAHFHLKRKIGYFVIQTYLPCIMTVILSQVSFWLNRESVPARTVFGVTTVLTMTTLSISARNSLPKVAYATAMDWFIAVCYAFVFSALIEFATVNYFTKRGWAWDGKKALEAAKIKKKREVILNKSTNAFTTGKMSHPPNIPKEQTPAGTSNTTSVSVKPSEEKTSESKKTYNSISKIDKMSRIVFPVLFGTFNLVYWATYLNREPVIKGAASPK

[2] = biological target: T2, Gamma-aminobutyric acid receptor subunit alpha-1 (Homo sapiens, UniProt P14867); test: Displacement of flumazenil from alpha1 GABAA receptor (unknown origin)
T2 sequence (P14867 whole entry): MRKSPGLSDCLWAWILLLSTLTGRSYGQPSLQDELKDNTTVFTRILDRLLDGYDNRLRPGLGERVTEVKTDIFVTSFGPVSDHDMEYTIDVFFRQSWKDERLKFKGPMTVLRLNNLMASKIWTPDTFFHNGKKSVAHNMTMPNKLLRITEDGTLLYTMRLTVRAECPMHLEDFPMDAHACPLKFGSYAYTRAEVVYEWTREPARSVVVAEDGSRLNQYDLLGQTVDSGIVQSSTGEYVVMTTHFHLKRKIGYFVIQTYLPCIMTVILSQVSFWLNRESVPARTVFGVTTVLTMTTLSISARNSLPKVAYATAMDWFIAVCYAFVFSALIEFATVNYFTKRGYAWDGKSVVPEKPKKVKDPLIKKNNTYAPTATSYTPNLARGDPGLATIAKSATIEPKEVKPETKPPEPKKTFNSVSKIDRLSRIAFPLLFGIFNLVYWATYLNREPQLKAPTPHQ

[3] = biological target: T3, Gamma-aminobutyric acid receptor subunit alpha-5 (Homo sapiens) (UniProt P31644); test: Displacement of flumazenil from alpha5 GABAA receptor (unknown origin) at 1 uM relative to control
T3 sequence (whole entry): T1 sequence (P31644 whole entry)

[4] = biological target: T3, Gamma-aminobutyric acid receptor subunit alpha-5 (Homo sapiens); test: Displacement of flumazenil from alpha5 GABAA receptor (unknown origin) at 10 uM relative to control; conditions: filed as modulator
[5] = biological target: T1, Gamma-aminobutyric acid receptor subunit alpha-5; test: Negative allosteric modulation of alpha5 GABAA (unknown origin)
[6] = biological target: T2, Gamma-aminobutyric acid receptor subunit alpha-1; test: Negative allosteric modulation of alpha1 GABAA (unknown origin)

SMILES	Ki [1]	Ki [2]	further results
Cc1cc(Cc2ncn3c2c(=O)n(Cc2ccccn2)c2ccccc23)no1	379 nM	–	–
O=c1c2cncn2c2ccccc2n1CCc1ccccn1	–	–	Activity [3]: 29%
O=c1c2cncn2c2cc(Cl)ccc2n1Cc1cccnc1	840 nM	–	–
Cc1noc(C)c1Cn1c(=O)c2c(C)ncn2c2ccccc21	–	–	Activity ([3]; filed as modulator): 65%
N#Cc1cccc2c1n1cncc1c(=O)n2Cc1cccnc1	–	–	Activity [3]: 0%
COc1cc(Cl)c2c(c1)n(Cc1cccnc1)c(=O)c1cncn12	142 nM	670 nM	–
O=c1c2cncn2c2cc(OC(F)(F)F)ccc2n1Cc1cccnc1	–	–	Activity ([3]; filed as modulator): 42%
COc1cc(Cl)c2c(c1)n(Cc1cnccc1C)c(=O)c1cncn12	687 nM	2100 nM	–
CCc1ncn2c1c(=O)n(Cc1ccccn1)c1ccccc12	360 nM	–	–
CCn1c(=O)c2cncn2c2ccccc21	1380 nM	–	–
Cn1c(=O)c2cncn2c2ccccc21	2190 nM	–	–
O=c1[nH]c2ccccc2n2cncc12	–	–	Activity [4]: 53%
N#Cc1ccc(Cn2c(=O)c3cncn3c3ccccc32)cn1	–	–	Activity ([3]; filed as modulator): 61%
COc1ccc(Cn2c(=O)c3cncn3c3ccccc32)cc1	244 nM	–	–
CC(C)(C)c1ccc2c(c1)n(Cc1cccnc1)c(=O)c1cncn12	210 nM	310 nM	–
O=c1c2cncn2c2ccccc2n1Cc1ccncc1	–	–	Activity ([3]; filed as modulator): 62%
COc1ccc2c(c1)n1cncc1c(=O)n2Cc1cccnc1	–	–	Activity [3]: 18%
O=C(c1ccc(Cn2c(=O)c3cncn3c3ccccc32)cn1)N1CCOCC1	–	–	Activity [3]: 38%
O=c1c2cncn2c2cc(F)c(F)cc2n1Cc1cccnc1	–	–	Activity ([3]; filed as modulator): 57%
Cc1onc(-c2ccc(F)cc2)c1COc1ccc(C(=O)N2CCS(=O)(=O)CC2)cn1 [BASMISANIL]	–	–	Ki [5]: 4.4 nM; Ki [6]: 1210 nM
Cc1cc(-c2nnc3c4ccccc4c(OCc4ccccn4)nn23)no1	–	–	Ki [5]: 0.5 nM; Ki [6]: 0.4 nM
O=c1c2cncn2c2ccccc2n1-c1ccccn1	–	–	Activity [3]: 7%
O=c1c2cncn2c2ccccc2n1Cc1ccccc1	–	–	Activity ([3]; filed as modulator): 61%
O=c1c2cncn2c2c(Cl)cccc2n1Cc1cccnc1	295 nM	2150 nM	–
O=c1c2cncn2c2c(Cl)cc(Cl)cc2n1Cc1cccnc1	138 nM	420 nM	–

Now from value to molecule, other results behind:

Ki [1]	Ki [2]	SMILES	further results
2 nM	7 nM	CCOC(=O)c1ncn2c1c(=O)n(Cc1cccnc1)c1cccc(Cl)c12	–
107 nM	–	Cc1ncccc1Cn1c(=O)c2cncn2c2ccccc21	–
20 nM	120 nM	COc1ccc2c(c1)n(Cc1cccnc1)c(=O)c1cncn12	–
16 nM	35 nM	Cc1ccc(Cn2c(=O)c3cncn3c3ccccc32)cn1	–
11 nM	15 nM	O=c1c2cncn2c2ccc(Cl)cc2n1Cc1cccnc1	–
17 nM	60 nM	Cc1ccncc1Cn1c(=O)c2cncn2c2ccccc21	–
17 nM	60 nM	Cc1cncc(Cn2c(=O)c3cncn3c3ccccc32)c1	–
30 nM	–	Cc1cc(Cn2c(=O)c3c(C)ncn3c3ccccc32)no1	–
28 nM	32 nM	O=c1c2cncn2c2ccccc2n1Cc1cccnc1	–
64 nM	123 nM	Cn1cc(Cn2c(=O)c3cncn3c3ccccc32)cn1	–
122 nM	–	O=c1c2cncn2c2cccnc2n1Cc1cccnc1	–
1.7 nM	3.6 nM	Cc1ncc(Cn2c(=O)c3cncn3c3ccccc32)cn1	–
80 nM	23 nM	O=c1c2c(CC3CC3)ncn2c2ccccc2n1Cc1ccccn1	–
12 nM	5.4 nM	O=c1c2c(Cl)ncn2c2ccccc2n1Cc1ccccn1	–
18 nM	8 nM	Cc1ncn2c1c(=O)n(Cc1cccnc1)c1ccccc12	–
65 nM	16 nM	Cc1ncn2c1c(=O)n(Cc1ccccn1)c1ccccc12	–
86 nM	600 nM	Cc1cccc2c1n1cncc1c(=O)n2Cc1cccnc1	–
52 nM	100 nM	O=c1c2c(CO)ncn2c2ccccc2n1Cc1cccnc1	–
33 nM	55 nM	O=c1c2cncn2c2ccccc2n1Cc1cnccn1	–
48 nM	74 nM	CN1C(=O)COc2cc(Cn3c(=O)c4cncn4c4ccccc43)ccc21	–
132 nM	52 nM	O=c1c2cncn2c2ccccc2n1Cc1ccccn1	–
56 nM	32 nM	Cc1cc(Cn2c(=O)c3cncn3c3ccccc32)no1	–
89 nM	76 nM	O=c1c2cncn2c2ccc(Br)cc2n1Cc1cccnc1	–
15 nM	30 nM	O=c1c2cncn2c2ccccc2n1Cc1cncnc1	–
0.3 nM	0.4 nM	CCOC(=O)c1ncn2c1c(=O)n(Cc1cccnc1)c1ccccc12	–
